Assay results: patent publication US8865623B2, “Herbicidally active cyclic diones and derivatives thereof, processes for their preparation, compositions, and method of controlling weeds” (Syngenta Limited, priority 2009, dated 2014)

Columns and labels:
Format in all cases: in vivo
[1] = system: Echinochloa crus-galli (ECHCG); test: Post-emergence herbicidal activity, glasshouse pot test; conditions: Echinochloa crus-galli, 312 h, rate 250 g/ha, evaluated after 13 days, glasshouse, read-out: Post-emergence activity ECHCG (100=total damage to plant; 0=no damage to plant)
How it was run: (§1)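 Spray solution: technical a.i. formulated in acetone/water (50:50) with 0.5% Tween 20, diluted in water. Applied to pots 1 d (pre) or 8 d (post) after sowing; glasshouse 24/16° C day/night, 14 h light, 65% humidity. Rated at 13 d, 0–100 damage.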

Lolium perenne (LOLPE) [2] = test: as above; conditions: Lolium perenne, 312 h, rate 250 g/ha, evaluated after 13 days, glasshouse, read-out: Post-emergence activity LOLPE (100=total damage to plant; 0=no damage to plant)
How it was run: as §1

Avena fatua (AVEFA) [3] = test: as above; conditions: Avena fatua, 312 h, rate 250 g/ha, evaluated after 13 days, glasshouse, read-out: Post-emergence activity AVEFA (100=total damage to plant; 0=no damage to plant)
How it was run: as §1

[4] = system: Alopecurus myosuroides (ALOMY); test: as above; conditions: Alopecurus myosuroides, 312 h, rate 250 g/ha, evaluated after 13 days, glasshouse, read-out: Post-emergence activity ALOMY (100=total damage to plant; 0=no damage to plant)
How it was run: as §1

[5] = system: Echinochloa crus-galli (ECHCG); test: Pre-emergence herbicidal activity, glasshouse pot test; conditions: Echinochloa crus-galli, 312 h; Rate 250 g/ha; pre-emergence spray; evaluated after 13 days; read-out: Pre-emergence activity ECHCG (100=total damage to plant; 0=no damage to plant)
How it was run: as §1

Lolium perenne (LOLPE) [6] = test: as above; conditions: Lolium perenne, 312 h; Rate 250 g/ha; pre-emergence spray; evaluated after 13 days; read-out: Pre-emergence activity LOLPE (100=total damage to plant; 0=no damage to plant)
How it was run: as §1

Avena fatua (AVEFA) [7] = test: as above; conditions: Avena fatua, 312 h; Rate 250 g/ha; pre-emergence spray; evaluated after 13 days; read-out: Pre-emergence activity AVEFA (100=total damage to plant; 0=no damage to plant)
How it was run: as §1

[8] = system: Alopecurus myosuroides (ALOMY); test: as above; conditions: Alopecurus myosuroides, 312 h; Rate 250 g/ha; pre-emergence spray; evaluated after 13 days; read-out: Pre-emergence activity ALOMY (100=total damage to plant; 0=no damage to plant)
How it was run: as §1

| SMILES | pest or weed control at 250 g/ha [1] | pest or weed control at 250 g/ha (Lolium perenne (LOLPE) [2]) | pest or weed control at 250 g/ha (Avena fatua (AVEFA) [3]) | pest or weed control at 250 g/ha [4] | pest or weed control at 250 g/ha [5] | pest or weed control at 250 g/ha (Lolium perenne (LOLPE) [6]) | pest or weed control at 250 g/ha (Avena fatua (AVEFA) [7]) | pest or weed control at 250 g/ha [8] |
| --- | --- | --- | --- | --- | --- | --- | --- | --- |
| CCc1ccc(Oc2ncc(Cl)cc2Cl)cc1C1=C(O)[C@H]2CC[C@H](C2)C1=O [Example A-336] | 100% | 100% | 80% | 90% | 100% | 100% | 80% | 90% |
| CCc1ccc(Oc2nc3cc(Cl)ccc3s2)cc1C1=C(O)CC2(CCOCC2)CC1=O [Example A-308] | 100% | 100% | 100% | 90% | 100% | 70% | 80% | 90% |
| CCc1ccc(Oc2nc3ccc(Cl)cc3s2)cc1C1=C(O)CC(C)(C)CC1=O [Example A-287] | 100% | 100% | 100% | 100% | 100% | 100% | 90% | 100% |
| CCc1ccc(Oc2ccc(Cl)c(F)c2)cc1C1=C(O)CC(C)(C)CC1=O [Example A-46] | 100% | 60% | 50% | 80% | 90% | 70% | 30% | 100% |
| CCc1ccc(Oc2cnc3cc(F)ccc3n2)cc1C1=C(O)CC2(CCOCC2)CC1=O [Example A-311] | 100% | 100% | 100% | 100% | 100% | 100% | 100% | 90% |
| CCc1ccc(Oc2ccc(Br)cc2F)cc1C1=C(O)CC2(CCOCC2)CC1=O [Example A-25] | 100% | 90% | 100% | 90% | 90% | 80% | 80% | 70% |
| CCc1ccc(Oc2nnc3cc(Cl)ccc3n2)cc1C1=C(O)C(C)(C)OC(C)(C)C1=O [Example A-237] | 70% | 10% | 10% | 10% | 40% | 20% | 10% | 10% |
| CCc1ccc(Oc2ccc(Br)cc2Cl)cc1C1=C(O)C(C)(C)OC(C)(C)C1=O [Example A-9] | 100% | 80% | 100% | 90% | 100% | 80% | 30% | 60% |
| CCc1ccc(Oc2nc(F)c(F)c(Cl)c2F)cc1C1=C(O)C(C)(C)OC(C)(C)C1=O [Example A-151] | 70% | 30% | 20% | 20% | 70% | 50% | 20% | 30% |
| CCc1ccc(Oc2ncc(C)nc2C)cc1C1=C(O)C(C)(C)OC(C)(C)C1=O [Example A-135] | 50% | 30% | 20% | 30% | 30% | 10% | 0% | 10% |
| CCc1ccc(Oc2ccc(Br)cc2)cc1C1=C(O)CCCC1=O [Example A-41] | 90% | 30% | 10% | 30% | 100% | 60% | 20% | 40% |
| CCc1ccc(Oc2ccc(Br)cc2F)cc1C1=C(O)[C@H]2CC[C@H](C2)C1=O [Example A-250] | 100% | 80% | 80% | 90% | 90% | 80% | 50% | 80% |
| CCc1ccc(Oc2ccc(Cl)cc2)cc1C1=C(O)C(C)(C)CCC1=O [Example A-50] | 50% | 60% | 0% | 0% | 100% | 70% | 0% | 0% |
| CCc1ccc(Oc2ccc(C#N)c(Cl)c2)cc1C1=C(O)CC(C)(C)CC1=O [Example A-280] | 100% | 60% | 70% | 90% | 100% | 70% | 40% | 70% |
| CCc1ccc(Oc2ccc(Cl)cc2Cl)cc1C1=C(O)CC(C)(C)CC1=O [Example A-71] | 90% | 60% | 30% | 60% | 90% | 40% | 0% | 30% |
| CCc1ccc(Oc2nc3ccc(OC)cc3s2)cc1C1=C(O)CC(C)(C)CC1=O [Example A-300] | 100% | 60% | 70% | 80% | 100% | 100% | 0% | 80% |
| CCc1ccc(Oc2ccc(C(F)(F)F)cc2Cl)cc1C1=C(O)[C@H]2CC[C@H](C2)C1=O [Example A-331] | 100% | 80% | 80% | 80% | 100% | 100% | 80% | 90% |
| CCc1ccc(Oc2ccc([N+](=O)[O-])cc2Cl)cc1C1=C(O)C(C)(C)OC(C)(C)C1=O [Example A-201] | 100% | 70% | 60% | 60% | 60% | 30% | 0% | 10% |
| CCc1ccc(Oc2ncc(I)cc2Cl)cc1C1=C(O)C(C)(C)OC(C)(C)C1=O [Example A-157] | 100% | 90% | 100% | 90% | 80% | 50% | 30% | 40% |
| CCc1ccc(Oc2ccc(C(F)(F)F)c(Cl)c2)cc1C1=C(O)CC2(CCOCC2)CC1=O [Example A-278] | 100% | 100% | 100% | 100% | 0% | 70% | 70% | 60% |
| CCc1ccc(Oc2nc3ccc([N+](=O)[O-])cc3s2)cc1C1=C(O)CC2(CCOCC2)CC1=O [Example A-265] | 100% | 70% | 70% | 70% | 90% | 80% | 0% | 60% |
